Read-outs that look alike come from different tables or passages of the source.
How the values were obtained:
Type in all cases: cell-based
[1] = tested on: NCI-H322M; test: NCI DTP cell line screen (SRB), Non-Small Cell Lung Cancer
Method: (§1) Screening of compounds 70 and 71 against several cancer cell lines The human tumor cell lines of the cancer screening panel are grown in RPMI 1640 medium containing 5% fetal bovine serum and 2 mM L-glutamine. For a typical screening experiment, cells are inoculated into 96 well microtiter plates in 100 μL at plating densities ranging from 5,000 to 40,000 cells/well depending on the doubling time of individual cell lines. After cell inoculation, the microtiter plates are incubated at 37° C., 5% CO2, 95% air and 100% relative humidity for 24 h prior to addition of experimental drugs.
(§2) After 24 h, two plates of each cell line are fixed in situ with TCA, to represent a measurement of the cell population for each cell line at the time of drug addition (Tz). Experimental drugs are solubilized in dimethyl sulfoxide at 400-fold the desired final maximum test concentration and stored frozen prior to use. At the time of drug addition, an aliquot of frozen concentrate is thawed and diluted to twice the desired final maximum test concentration with complete medium containing 50 μg/ml gentamicin. Additional four, 10-fold or ½ log serial dilutions are made to provide a total of five drug concentrations plus control. Aliquots of 100 μl of these different drug dilutions are added to the appropriate microtiter wells already containing 100 μl of medium, resulting in the required final drug concentrations.
(§3) Following drug addition, the plates are incubated for an additional 48 h at 37° C., 5% CO2, 95% air, and 100% relative humidity. For adherent cells, the assay is terminated by the addition of cold TCA. Cells are fixed in situ by the gentle addition of 50 μl of cold 50% (w/v) TCA (final concentration, 10% TCA) and incubated for 60 minutes at 4° C. The supernatant is discarded, and the plates are washed five times with tap water and air dried. Sulforhodamine B (SRB) solution (100 μl) at 0.4% (w/v) in 1% acetic acid is added to each well, and plates are incubated for 10 minutes at room temperature. After staining, unbound dye is removed by washing five times with 1% acetic acid and the plates are air dried. Bound stain is subsequently solubilized with 10 mM trizma base, and the absorbance is read on an automated plate reader at a wavelength of 515 nm. For suspension cells, the methodology is the same except that the assay is terminated by fixing settled cells at the bottom of the wells by gently adding 50 μl of 80% TCA (final concentration, 16% TCA). Using the seven absorbance measurements [time zero, (Tz), control growth, (C), and test growth in the presence of drug at the five concentration levels (Ti)], the percentage growth is calculated at each of the drug concentrations levels. Percentage growth inhibition is calculated as: [(Ti−Tz)/(C−Tz)]×100 for concentrations for which Ti>/=Tz [(Ti−Tz)/Tz]×100 for concentrations for which Ti<Tz
(§4) Three dose response parameters are calculated for each experimental agent. […] The drug concentration resulting in total growth inhibition (TGI) is calculated from Ti=Tz. […] Values are calculated for each of these three parameters if the level of activity is reached; however, if the effect is not reached or is exceeded, the value for that parameter is expressed as greater or less than the maximum or minimum concentration tested.
(§5) The methods described were used to test compounds 70 and 71 on a panel of sixty cell lines under a screening service provided by the Developmental Therapeutics Program at the National Institutes of Health. Shown in FIG. 1C are 1, RPMI-8226 leukemia cells; 2; NCI-H322M non-small cell lung cancer cells; 3, HT29 colon cancer cells; 4, U251 CNS cancer cells; 5, SK-MEL-28 melanoma cancer cells; 6, SK-OV-3 ovarian cancer cells; 7, RXF 393 renal cancer cells; 8, PC-3 prostate cancer cells; 9, MDA-MB-231 breast cancer cells.

[2] = tested on: EKVX; test: as above
Method: as §1, §2, §3, §4, §5

[3] = tested on: A549/ATCC; test: as above
Method: as §1, §2, §3, §4, §5

[4] = tested on: NCI-H460; test: as above
Method: as §1, §2, §3, §4, §5

[5] = tested on: NCI-H23; test: as above
Method: as §1, §2, §3, §4, §5

[6] = tested on: HOP-62; test: as above
Method: as §1, §2, §3, §4, §5

[7] = tested on: KM12; test: NCI DTP cell line screen (SRB), Colon Cancer
Method: as §1, §2, §3, §4, §5

[8] = read-out: LC50 (the source's name)

N=C(N)Nc1ccc(-n2nc(C(F)(F)F)cc2-c2ccc3c(ccc4ccccc43)c2)cc1 [Compound 71, 4-[5-(2-Phenanthrenyl)-3-(trifluoromethyl)-1H-pyrazol-1-yl]-phenyl-guanidine]
GI50 [1]: 1360 nM
TGI [1]: 2.64E−06
Mean Optical Densities ([1]; Log10 Concentration −4.0): 0.257
Percent Growth ([1]; Log10 Concentration −4.0): −59%
Mean Optical Densities ([1]; Log10 Concentration −5.0): −0.052
Percent Growth ([1]; Log10 Concentration −5.0): −100%
Mean Optical Densities ([1]; Log10 Concentration −6.0): 1.031
Percent Growth ([1]; Log10 Concentration −6.0): 73%
Mean Optical Densities ([1]; Log10 Concentration −7.0): 1.049
Percent Growth ([1]; Log10 Concentration −7.0): 76%
Mean Optical Densities ([1]; Log10 Concentration −8.0): 0.988
Percent Growth ([1]; Log10 Concentration −8.0): 65%
CC50 [1, 8]: 5140 nM
GI50 [2]: 1060 nM
TGI [2]: 2.24E−06
Mean Optical Densities ([2]; Log10 Concentration −4.0): 0.145
Percent Growth ([2]; Log10 Concentration −4.0): −74%
Mean Optical Densities ([2]; Log10 Concentration −5.0): −0.008
Percent Growth ([2]; Log10 Concentration −5.0): −100%
Mean Optical Densities ([2]; Log10 Concentration −6.0): 0.711
Percent Growth ([2]; Log10 Concentration −6.0): 54%
Mean Optical Densities ([2]; Log10 Concentration −7.0): 0.737
Percent Growth ([2]; Log10 Concentration −7.0): 63%
Mean Optical Densities ([2]; Log10 Concentration −8.0): 0.713
Percent Growth ([2]; Log10 Concentration −8.0): 55%
CC50 [2, 8]: 4740 nM
GI50 [3]: 1680 nM
TGI [3]: 3.04E−06
Mean Optical Densities ([3]; Log10 Concentration −4.0): 0.135
Percent Growth ([3]; Log10 Concentration −4.0): −63%
Mean Optical Densities ([3]; Log10 Concentration −5.0): −0.032
Percent Growth ([3]; Log10 Concentration −5.0): −100%
Mean Optical Densities ([3]; Log10 Concentration −6.0): 1.121
Percent Growth ([3]; Log10 Concentration −6.0): 93%
Mean Optical Densities ([3]; Log10 Concentration −7.0): 1.145
Percent Growth ([3]; Log10 Concentration −7.0): 96%
Mean Optical Densities ([3]; Log10 Concentration −8.0): 1.140
Percent Growth ([3]; Log10 Concentration −8.0): 96%
CC50 [3, 8]: 5510 nM
GI50 [4]: 1640 nM
TGI [4]: 3.04E−06
Mean Optical Densities ([4]; Log10 Concentration −4.0): 0.257
Percent Growth ([4]; Log10 Concentration −4.0): −20%
Mean Optical Densities ([4]; Log10 Concentration −5.0): 0.011
Percent Growth ([4]; Log10 Concentration −5.0): −97%
Mean Optical Densities ([4]; Log10 Concentration −6.0): 1.650
Percent Growth ([4]; Log10 Concentration −6.0): 90%
Mean Optical Densities ([4]; Log10 Concentration −7.0): 1.658
Percent Growth ([4]; Log10 Concentration −7.0): 91%
Mean Optical Densities ([4]; Log10 Concentration −8.0): 1.654
Percent Growth ([4]; Log10 Concentration −8.0): 91%
GI50 [5]: 1790 nM
TGI [5]: 3.18E−06
Mean Optical Densities ([5]; Log10 Concentration −4.0): 0.151
Percent Growth ([5]; Log10 Concentration −4.0): −67%
Mean Optical Densities ([5]; Log10 Concentration −5.0): −0.041
Percent Growth ([5]; Log10 Concentration −5.0): −100%
Mean Optical Densities ([5]; Log10 Concentration −6.0): 1.679
Percent Growth ([5]; Log10 Concentration −6.0): 101%
Mean Optical Densities ([5]; Log10 Concentration −7.0): 1.515
Percent Growth ([5]; Log10 Concentration −7.0): 87%
Mean Optical Densities ([5]; Log10 Concentration −8.0): 1.585
Percent Growth ([5]; Log10 Concentration −8.0): 93%
CC50 [5, 8]: 5640 nM
GI50 [6]: 1720 nM
TGI [6]: 3.12E−06
Mean Optical Densities ([6]; Log10 Concentration −4.0): 0.329
Percent Growth ([6]; Log10 Concentration −4.0): −36%
Mean Optical Densities ([6]; Log10 Concentration −5.0): 0.011
Percent Growth ([6]; Log10 Concentration −5.0): −98%
Mean Optical Densities ([6]; Log10 Concentration −6.0): 1.255
Percent Growth ([6]; Log10 Concentration −6.0): 96%
Mean Optical Densities ([6]; Log10 Concentration −7.0): 1.267
Percent Growth ([6]; Log10 Concentration −7.0): 97%
Mean Optical Densities ([6]; Log10 Concentration −8.0): 1.285
Percent Growth ([6]; Log10 Concentration −8.0): 100%
GI50 [7]: 1590 nM
TGI [7]: 2.97E−06
Mean Optical Densities ([7]; Log10 Concentration −4.0): 0.307
Percent Growth ([7]; Log10 Concentration −4.0): −43%
Mean Optical Densities ([7]; Log10 Concentration −5.0): 0.013
Percent Growth ([7]; Log10 Concentration −5.0): −98%
Mean Optical Densities ([7]; Log10 Concentration −6.0): 1.777
Percent Growth ([7]; Log10 Concentration −6.0): 87%
Mean Optical Densities ([7]; Log10 Concentration −7.0): 1.832
Percent Growth ([7]; Log10 Concentration −7.0): 91%
Mean Optical Densities ([7]; Log10 Concentration −8.0): 1.867
Percent Growth ([7]; Log10 Concentration −8.0): 94%

NCC(=O)Nc1ccc(-n2nc(C(F)(F)F)cc2-c2ccc3c(ccc4ccccc43)c2)cc1 [Compound 70, 2-Amino-N-{4-[5-(2-phenanthrenyl)-3-(trifluoromethyl)-1H-pyrazol-1-yl]-phenyl}-acetamide]
TGI [1]: 2.18E−06
Percent Growth ([1]; Log10 Concentration −4.0): −57%
Percent Growth ([1]; Log10 Concentration −5.0): −84%
Percent Growth ([1]; Log10 Concentration −6.0): 43%
Percent Growth ([1]; Log10 Concentration −7.0): 51%
Percent Growth ([1]; Log10 Concentration −8.0): 40%
TGI [2]: 3.25E−06
CC50 ([2]; Homo sapiens, read-out: LC50): 7080 nM
Percent Growth ([2]; Log10 Concentration −4.0): −65%
Percent Growth ([2]; Log10 Concentration −5.0): −72%
Percent Growth ([2]; Log10 Concentration −6.0): 75%
Percent Growth ([2]; Log10 Concentration −7.0): 100%
Percent Growth ([2]; Log10 Concentration −8.0): 110%
TGI [3]: 2.96E−06
Percent Growth ([3]; Log10 Concentration −4.0): −31%
Percent Growth ([3]; Log10 Concentration −5.0): −57%
Percent Growth ([3]; Log10 Concentration −6.0): 51%
Percent Growth ([3]; Log10 Concentration −7.0): 86%
Percent Growth ([3]; Log10 Concentration −8.0): 102%
TGI [4]: 2.64E−06
Percent Growth ([4]; Log10 Concentration −4.0): −33%
Percent Growth ([4]; Log10 Concentration −5.0): −46%
Percent Growth ([4]; Log10 Concentration −6.0): 34%
Percent Growth ([4]; Log10 Concentration −7.0): 77%
Percent Growth ([4]; Log10 Concentration −8.0): 97%
TGI [5]: 2.87E−06
Percent Growth ([5]; Log10 Concentration −4.0): −66%
Percent Growth ([5]; Log10 Concentration −5.0): −79%
Percent Growth ([5]; Log10 Concentration −6.0): 67%
Percent Growth ([5]; Log10 Concentration −7.0): 102%
Percent Growth ([5]; Log10 Concentration −8.0): 101%
TGI [6]: 3.01E−06
Percent Growth ([6]; Log10 Concentration −4.0): −57%
Percent Growth ([6]; Log10 Concentration −5.0): −70%
Percent Growth ([6]; Log10 Concentration −6.0): 64%
Percent Growth ([6]; Log10 Concentration −7.0): 93%
Percent Growth ([6]; Log10 Concentration −8.0): 90%
TGI [7]: 2.67E−06
Percent Growth ([7]; Log10 Concentration −4.0): −51%
Percent Growth ([7]; Log10 Concentration −5.0): −73%
Percent Growth ([7]; Log10 Concentration −6.0): 54%
Percent Growth ([7]; Log10 Concentration −7.0): 91%
Percent Growth ([7]; Log10 Concentration −8.0): 98%
